Source: patent publication US20260258050A1, “IMMUNOMODULATOR” (HITGEN INC., priority 2023, published 2026)

Each molecule was assayed against T1, Human IL-17A (Homo sapiens, UniProt Q16552) (assay: IL-17A enzyme-linked immunosorbent assay (competitive ELISA, IL-17A/IL-17Ra receptor-ligand binding)). Settings: human IL-17A coated plate, human IL-17Ra, read-out: IC50, inhibitory activity of compounds on human IL-17A.
T1 sequence (Q16552 20-155 limits assumed): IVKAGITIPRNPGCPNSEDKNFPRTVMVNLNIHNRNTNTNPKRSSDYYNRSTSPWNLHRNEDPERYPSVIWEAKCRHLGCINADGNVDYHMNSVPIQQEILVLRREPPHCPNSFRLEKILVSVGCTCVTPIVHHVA
Set-up: purchased Sino Biological Inc. 12047-H07B
Summary of the method: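 Competitive ELISA with plates coated with human IL-17A at 0.2 μg/ml, blocked with 5% skim milk. Compound pre-incubated with IL-17A 10 min at 25 °C, then 16 nM IL-17Ra stock added for 30 min. Bound receptor detected by anti-Fc HRP/TMB, A450. IC50 from variable-slope fit of blank-corrected residual activity.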

Row | IC50 [nM] | Compound
1 | ≤ 50 | Cc1[nH]nc2c1-c1cc(F)c(NC(=O)[C@@H](NC(=O)c3ccnn3C(C)C)C(C3CC3)C3CC3)cc1CN(C(C)C(F)(F)F)C(=O)C2 (mixture of isomers) [compound 173]
2 | ≤ 50 | Cc1[nH]nc2c1-c1cc(F)c(NC(=O)[C@@H](NC(=O)c3ccnn3C(C)C3CC3)C(C3CC3)C3CC3)cc1COCC2 (single isomer, unassigned) [compound 41a]
3 | ≤ 50 | Cc1[nH]nc2c1-c1cc(F)c(NC(=O)[C@@H](NC(=O)c3ccnn3C(C)C3CC3)C(C3CC3)C3CC3)cc1COCC2 (single isomer, unassigned) [compound 41b]
4 | ≤ 50 | Cc1[nH]nc2c1-c1cc(F)c(NC(=O)[C@@H](NC(=O)c3ccnn3C(C)CF)C(C3CC3)C3CC3)cc1COCC2 (single isomer, unassigned) [compound 42a]
5 | ≤ 50 | Cc1[nH]nc2c1-c1cc(F)c(NC(=O)[C@@H](NC(=O)c3ccnn3C(C)CF)C(C3CC3)C3CC3)cc1COCC2 (single isomer, unassigned) [compound 42b]
6 | ≤ 50 | Cc1[nH]nc2c1-c1cc(F)c(NC(=O)[C@@H](NC(=O)c3ccnn3C(C)C)C(C3CC3)C3CC3)cc1CN(C(C)C(F)(F)F)C(=O)C2 (single isomer, unassigned) [compound 186a]
7 | ≤ 50 | Cc1[nH]nc2c1-c1cnc(NC(=O)[C@@H](NC(=O)c3ccnn3C(C)C3CC3)C(C3CC3)C3CC3)cc1COCC2 (single isomer, unassigned) [compound 188a]
8 | ≤ 50 | Cc1[nH]nc2c1-c1cnc(NC(=O)[C@@H](NC(=O)c3ccnn3C(C)C3CC3)C(C3CC3)C3CC3)cc1COCC2 (single isomer, unassigned) [compound 188b]
9 | ≤ 50 | Cc1[nH]nc2c1-c1cnc(NC(=O)[C@@H](NC(=O)c3ccnn3C(C)CF)C(C3CC3)C3CC3)cc1COCC2 (single isomer, unassigned) [compound 189a]
10 | ≤ 50 | Cc1[nH]nc2c1-c1cnc(NC(=O)[C@@H](NC(=O)c3ccnn3C(C)CF)C(C3CC3)C3CC3)cc1COCC2 (single isomer, unassigned) [compound 189b]
11 | ≤ 50 | Cc1[nH]nc2c1-c1ccc(NC(=O)[C@@H](NC(=O)c3ccnn3C)C(C3CC3)C3CC3)cc1COCC2 [compound 2]
12 | ≤ 50 | Cc1[nH]nc2c1-c1cc(F)c(NC(=O)[C@@H](NC(=O)c3ccnn3C(C)C)C(C3CC3)C3CC3)cc1COCC2 [compound 15]
13 | ≤ 50 | CCn1nccc1C(=O)N[C@H](C(=O)Nc1cc2c(cc1F)-c1c(n[nH]c1C)CCOC2)C(C1CC1)C1CC1 [compound 16]
14 | ≤ 50 | Cc1[nH]nc2c1-c1cc(F)c(NC(=O)[C@@H](NC(=O)c3ccnn3C)C(C3CC3)C3CC3)cc1COCC2 [compound 17]
15 | ≤ 50 | Cc1[nH]nc2c1-c1ccc(NC(=O)[C@@H](NC(=O)c3ccnn3C(C)C)C(C3CC3)C3CC3)cc1CN(C)C(=O)C2 [compound 22]
16 | ≤ 50 | CCn1nccc1C(=O)N[C@H](C(=O)Nc1ccc2c(c1)CN(C)C(=O)Cc1n[nH]c(C)c1-2)C(C1CC1)C1CC1 [compound 23]
17 | ≤ 50 | Cc1[nH]nc2c1-c1ccc(NC(=O)[C@@H](NC(=O)c3ccnn3C(C)C)C(C3CC3)C3CC3)cc1CNC(=O)C2 [compound 27]
18 | ≤ 50 | CCn1nccc1C(=O)N[C@H](C(=O)Nc1ccc2c(c1)CNC(=O)Cc1n[nH]c(C)c1-2)C(C1CC1)C1CC1 [compound 28]
19 | ≤ 50 | CCn1nccc1C(=O)N[C@H](C(=O)Nc1cc2c(cc1F)-c1c(n[nH]c1C)CCOC2)[C@H]1CC[C@H](C)CC1 [compound 46]
20 | ≤ 50 | Cc1[nH]nc2c1-c1cc(F)c(NC(=O)[C@@H](NC(=O)c3ccnn3C(C)C)C3CCCCC3)cc1COCC2 [compound 48]
21 | ≤ 50 | [2H]C([2H])([2H])C([2H])(n1nccc1C(=O)N[C@H](C(=O)Nc1ccc2c(c1)COCCc1n[nH]c(C)c1-2)C(C1CC1)C1CC1)C([2H])([2H])[2H] [compound 52]
22 | ≤ 50 | [2H]C([2H])([2H])C([2H])(n1nccc1C(=O)N[C@H](C(=O)Nc1cc2c(cn1)-c1c(n[nH]c1C)CCOC2)C(C1CC1)C1CC1)C([2H])([2H])[2H] [compound 54]
